Drawing on the METLIN SMRT retention time set (Domingo-Almenara et al. 2019), this text covers RP-LC retention time for 59 compounds.

The nature of this data set: gradient 5% acetonitrile 3 min, to 50% in 2 min, to 85% in 15 min, held 3 min, 100 µL/min. To be noted: column: Zorbax Extend-C18 2.1 x 50 mm; eluents: water / acetonitrile, 0.1% formic acid. The method, boiled down: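 Each retention time is based on an adduct peak selected computationally and verified by manual inspection. Measurements used HPLC–quadrupole time-of-flight mass spectrometry in positive and negative ionization mode on mixtures of ~100 pure standards. Chromatography ran on a Zorbax Extend-C18 column (2.1 × 50 mm, 1.8 μm) at 100 μL/min with water and acetonitrile, each containing 0.1% formic acid, and dead and dwell volumes of 40 μL and 900 μL.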
`COc1ccc(-c2nc(C3CC(=O)N(c4ccc(OC)c(OC)c4)C3)no2)c(C)c1` (centres undefined) gave an RP-LC retention time of 911 s. As for `COc1ccc(C2(C(=O)N3C[C@@H](CO)[C@H](c4ccccn4)C3)CC2)cc1`, the figure is 605 s; as for `CC1(C(=O)NC2CCCCC2)CN(S(=O)(=O)c2ccccc2)CC(=O)N1c1ccc(F)cc1` (centres undefined), 959 s; as for `COc1ccc(Br)c(C(=O)Nc2ccc3c(c2)C(=O)NCC3)c1`, 672 s. Then `CC(=O)Nc1ccc(S(=O)(=O)NCc2nc(C)no2)cc1`, with 599 s. `CCN1CCN(c2cc(C)c3cc(NC(=S)N4CCC(Cc5ccccc5)CC4)ccc3n2)CC1`: the RP-LC retention time came to 699 s. Then `COc1ccc(Cl)cc1C(=O)N1CCC(C(=O)Nc2nccs2)CC1`, with 697 s; and `CCc1ccc(S(=O)(=O)Nc2ccc(-c3cn4cccc(C)c4n3)cc2)cc1`, with 667 s; and `Cc1cc(F)ccc1NC(=O)c1cc(C2CC2)n2nccc2n1`, with 1030 s. Then `CCn1c(=O)oc2cc(-c3noc(-c4ccc(Cl)cc4OC)n3)ccc21`, with 1170 s.

Turning to `CCOC(=O)C1C(=O)C=C(c2cccs2)CC1c1ccc(OCC)cc1` (centres undefined), the RP-LC retention time came to 1060 s. Then `Cc1cc2c(c(=O)n(-c3ccccc3)c(=O)n2CC(=O)Nc2ccc(Br)cc2)n1C`, with 877 s; and `CCN1c2ccc(F)cc2C(=O)NC12CCN(C(=O)c1ccc(F)cc1)CC2`, with 714 s. Then `Cc1cccc(-n2c(=O)c3c(cc(C)n3C)n(CC(=O)Nc3ccc(F)c(Cl)c3)c2=O)c1`, with 940 s.

Take `CC1=C(c2ccccc2)S(=O)(=O)N=C1N1CCCN(C(=O)CC(C)C)CC1`: the RP-LC retention time turned out to be 803 s. For `COc1cccc(C2Cn3nnc(-c4nc(-c5ccccc5F)no4)c3CO2)c1` (centres undefined), the RP-LC retention time worked out at 1100 s. Consider `Cc1cc(C)c(S(=O)(=O)N2CCC3(CC2)c2nccn2CCN3C)c(C)c1`, for which the RP-LC retention time amounted to 684 s. Then `O=C(CN1C(=O)CCC1=O)N1CCC(c2noc(-c3ccccn3)n2)C1` (centres undefined), with 608 s; and `CCc1ccc(N2CC(c3noc(-c4ccc(C)cc4)n3)CC2=O)cc1` (centres undefined), with 1170 s.

Turning to `CCN1CCn2c(nc3cc(C(=O)NCc4ccc(C(F)(F)F)cc4)ccc32)C1=O`, the RP-LC retention time amounted to 741 s. Compound `CCc1noc(NC(C)=O)c1-c1ccc(C)c(S(=O)(=O)NC2CCCCC2)c1` showed an RP-LC retention time of 839 s. As for `N#CCn1nc2n(c1=O)CCN(C(=O)c1cc(C3CC3)[nH]n1)CC2`, the figure is 595 s; as for `COc1cc(NC(=O)N2CCCC2c2ccccc2C)cc(OC)c1OC` (centres undefined), 865 s.

Compound `CCn1cc(-c2ccc(F)cc2)cc1C(=O)NCc1ccccn1` gave an RP-LC retention time of 722 s. Then `COc1cccc2c1OC1(C)CC2C(S(=O)(=O)c2ccc(Cl)cc2)C(=O)N1C` (centres undefined), with 938 s; and `CC(=O)N1CCc2cc(N3CC(C(=O)Nc4ccccc4)CC3=O)ccc21` (centres undefined), with 677 s. As to `Cc1ccccc1CNC(=O)C1(C)CCCN(C(=O)Nc2cccc(C)c2C)C1` (centres undefined), the RP-LC retention time stood at 977 s. Then `CC(C)OC(=O)Nc1ccc2nc(-c3cscn3)[nH]c2c1`, with 666 s. Then `CCc1ccc(-c2csc(Nc3ccccn3)n2)cc1`, with 1040 s; and `CC(C)c1cc(C(=O)Nc2ccc(F)cc2)nn1C1CCS(=O)(=O)C1` (centres undefined), with 860 s. As for `COc1ccc(-c2noc(-c3nnn(Cc4nc(-c5ccccc5OC)oc4C)c3C)n2)cc1`, the figure is 1100 s. Compound `Cc1ccc(C(=O)Nc2ccc3c(c2)Sc2ncccc2C(=O)N3C(C)C)cc1F` had an RP-LC retention time of 986 s. Then `COc1ccccc1N1CCN(c2ncccc2-c2nc(-c3ccccc3)no2)CC1`, with 1140 s. As for `CN(CCc1noc(COc2ccccc2)n1)C(=O)Nc1ccc(F)cc1`, the figure is 876 s; as for `COc1ccc(-c2nc(Nc3cnc(SC)nc3)sc2C)cc1`, 1050 s.

Regarding `NS(=O)(=O)c1cccnc1Nc1cccc(Br)c1`, the RP-LC retention time is 889 s.

`CNCc1ccc(-c2cccc(C(F)(F)F)c2)o1` yielded an RP-LC retention time of 673 s.

As for `Cc1nc2c(NC(=O)NCc3ccccc3)cccn2n1`, the RP-LC retention time is 707 s. The compound `CCn1cc(CCNS(=O)(=O)Cc2ccc(F)cc2Cl)c2cccnc21` registered an RP-LC retention time of 812 s. The compound `CCOC(=O)c1noc2ncnc(N(C)c3cccc(Cl)c3)c12` showed an RP-LC retention time of 965 s. Then `O=c1n(Cc2cccc(C(F)(F)F)c2)nc2c(S(=O)(=O)N3CCCC3)cccn12`, with 885 s. For `CCOc1ccc(NC(=O)N2CCC3(CC2)NC(=O)c2ccc(F)cc2N3C)cc1`, the RP-LC retention time is 777 s. Then `O=S(=O)(NCCCN1CCOC(c2ccccc2)C1)c1ccccc1Cl` (centres undefined), with 576 s. In turn, `COC(=O)c1c(-c2cccs2)csc1NC(=O)c1cc(OC)c(OC)c(OC)c1` returned an RP-LC retention time of 1120 s. The compound `COc1ccc(-c2noc(Cn3ccn(-c4cc(C)cc(C)c4)c(=O)c3=O)n2)cc1` registered an RP-LC retention time of 870 s. As for `Cc1nn(CC(=O)N2CCC(C)CC2)c(=O)c2nc(-c3ccccc3)sc12`, the figure is 872 s; as for `Cc1cccc(N2C(=O)CN(Cc3ccccc3Cl)[C@H]3CS(=O)(=O)C[C@H]32)c1`, 917 s. For the compound `CCCN1C(=O)CCc2cc(NS(=O)(=O)c3ccc(Cl)c(Cl)c3)ccc21`, the RP-LC retention time is 983 s. The compound `O=S(=O)(CCOc1ccc(F)cc1)Nc1ncccn1` showed an RP-LC retention time of 670 s. In turn, `O=C(Cn1nc(Cc2ccncc2)c2ccccc2c1=O)Nc1ccc(Cl)cn1` had an RP-LC retention time of 618 s.

As to `Cc1cc(C)cc(NC(=O)c2cc(C)n3nccc3n2)c1`, the RP-LC retention time came out at 1020 s. As for `Cc1cccc(NC(=O)C2CCCN2S(=O)(=O)c2cc3c(cc2Cl)NC(=O)CO3)c1C` (centres undefined), the figure is 891 s; as for `CCOC(=O)c1sc(NC(=O)c2ccco2)nc1-c1ccccc1`, 899 s; as for `COc1ccc(N2CCN(c3cc(SCC(=O)Nc4ccc(F)c(Cl)c4)ncn3)CC2)cc1`, 1060 s. `O=C(NCc1cccs1)c1cccc(N2CCNC(c3ccccc3)C2)n1` (centres undefined) came in with an RP-LC retention time of 579 s.

Take `Cc1ccc(N2CC(C(=O)N3CCC(NS(=O)(=O)c4ccccc4)CC3)CC2=O)cc1C` (centres undefined): the RP-LC retention time was 800 s. Then `Cn1cc(-c2nc(C(=O)Nc3ccc(C#N)cc3)cs2)c2cccnc21`, with 958 s; and `Cc1ccc(-c2noc(-c3cccc(S(=O)(=O)N4CCOCC4)c3)n2)cc1`, with 1120 s. Then `Cc1nc(NC(=O)C2CC(=O)N(c3n[nH]c4cccc(F)c34)C2)sc1C` (centres undefined), with 688 s.
